The values that follow come from US10383848B2, “Indole-based therapeutics” (Creighton University, priority 2016, dated 2019).

Each structure is given as a SMILES string. Values after ≈ are worked out from the molar mass of the structure shown. Where two headings read alike, the source gives them in different places.

The subject of one assay is M. abscessus DCI #21. In words: MIC, resazurin microtiter assay. It counts as cell-based. Conditions: Mycobacteroides abscessus; Mueller Hinton II; read-out: MIC M. abscessus DCI #21.
The subject of the next assay is mycobacteria. Kind of assay: organism not typed. The assay is classed as cell-based. Conditions: lowest concentration reducing CFU by 90% relative to the inoculum; strain not stated; read-out: MBC90.
Another assay deals with S. aureus ATCC25923. Kind of assay: MIC, resazurin microtiter assay. The assay is classed as cell-based. Conditions: Staphylococcus aureus, ATCC25923; Mueller Hinton II; read-out: MIC S. aureus ATCC25923.
The next assay concerns M. chelonae ATCC 35752. Kind of assay: MIC, resazurin microtiter assay. It counts as cell-based. Conditions: Mycobacteroides chelonae, ATCC35752, Mueller Hinton II; read-out: MIC M. chelonae ATCC 35752.
The subject of a further assay is M. avium 104. Kind of assay: MIC, resazurin microtiter assay. It counts as cell-based. Conditions: Mycobacterium avium, 104; Mueller Hinton II; read-out: MIC M. avium 104.
The next assay relates to M. bolletii ATCC 14472. Kind of assay: MIC, resazurin microtiter assay. Conditions: Mycobacteroides abscessus, ATCC14472, Mueller Hinton II; read-out: MIC M. bolletii ATCC 14472. The assay is classed as cell-based.
A further assay has as its system M. abscessus ATCC 19977. Kind of assay: MIC, resazurin microtiter assay. The assay is classed as cell-based. Conditions: Mycobacteroides abscessus, ATCC19977; Mueller Hinton II; read-out: MIC M. abscessus ATCC 19977.
The next assay deals with M. smegmatis mc^2155. In words: MIC, resazurin microtiter assay. The assay is classed as cell-based. Conditions: Mycolicibacterium smegmatis, MC^2155, 7H9-ADC-0.05% Tween 80; read-out: MIC M. smeg. mc^2155.
The subject of a further assay is P. aeruginosa PAO-1. Kind of assay: MIC, resazurin microtiter assay. Conditions: Mueller Hinton II. It counts as cell-based, Pseudomonas aeruginosa.
Assay [1] deals with M. massiliense CIP 108297. In words: MIC, resazurin microtiter assay. It counts as cell-based. Conditions: Mycobacteroides abscessus, CIP108297, Mueller Hinton II; read-out: MIC M. massiliense CIP 108297.
The test system of a further assay is M. intracellulare 1956. In words: MIC, resazurin microtiter assay. Conditions: Mueller Hinton II; read-out: MIC M. avium Intracellulare 1956. The assay is classed as cell-based.
The test system of another assay is M. xenopi WT. Kind of assay: MIC, resazurin microtiter assay. Conditions: Mycobacterium xenopi, Mueller Hinton II; read-out: MIC M. xenopi WT. The assay is classed as cell-based.
The next assay has as its system M. massiliense CRM 0019. Kind of assay: MIC, resazurin microtiter assay. It counts as cell-based. Conditions: Mycobacteroides abscessus, CRM0019, Mueller Hinton II; read-out: MIC M. massiliense CRM 0019.
Assay [2] concerns M. tuberculosis H37Rv mc^26206. Kind of assay: microbe, parasite or virus in culture. It counts as cell-based. Conditions: Mycobacterium tuberculosis, H37RV; read-out: MIC M. tb H37 Rv (mc2-6206).
Assay [3] has as its system M. abscessus 103. In words: Acute SCID mouse infection efficacy model. Conditions: SCID mice i.v. infected with M. abscessus 103; compounds 300 mg/kg PO in 20% cyclodextrin, AMI 150 mg/kg SQ, once daily 8 days.
Assay [4] relates to M. abscessus 103. In words: MIC/MBC by microbroth dilution (MH or 7H9 broth). Conditions: Mycobacteroides abscessus, 103; for MBC: 7H9 broth, read-out: MBC99 M. abscessus subsp. bolletii 103. It counts as cell-based, M. abscessus subsp. bolletii.
A further assay has as its system M. abscessus 1513. In words: MIC/MBC by microbroth dilution (MH or 7H9 broth). The assay is classed as cell-based, M. abscessus subsp. abscessus. Conditions: Mycobacteroides abscessus, 1513; for MBC: 7H9 broth, read-out: MBC99 M. abscessus subsp. abscessus 1513.
Setting [5] is: read-out: MIC M. abscessus 103, 7H9 Broth.
[6] abbreviates: read-out: MIC M. abscessus 103, MH Broth.
[7] abbreviates: read-out: MIC M. abscessus 1513, 7H9 Broth.
Where [8] appears, read: read-out: MIC M. abscessus 1513, MH Broth.

With `Cc1cc(C)c2cc(C(=O)NC3CCCCCC3)[nH]c2c1` [Compound 26, N-cycloheptyl-4,6-dimethyl-1H-indole-2-carboxamide], the MIC in the assay with M. abscessus DCI #21 was not above 0.06 µg/mL; in the assay with S. aureus ATCC25923 it was more than 160 µg/mL; in the assay on M. chelonae ATCC 35752, not above 0.06 µg/mL; in the assay on M. avium 104, 2 µg/mL (≈ 7.03 µM); with M. bolletii ATCC 14472, not above 0.06 µg/mL; with M. abscessus ATCC 19977, not above 0.06 µg/mL. For the same compound, the MIC was 0.625 µg/mL (≈ 2.2 µM) with M. smegmatis mc^2155; more than 160 µg/mL in the assay with P. aeruginosa PAO-1 (Pseudomonas aeruginosa, PAO1, read-out: MIC P. aeruginosa PAO-1); not above 0.06 µg/mL in assay [1]; 4 µg/mL (≈ 14.1 µM) in the assay on M. intracellulare 1956; 0.06 to 0.12 µg/mL (≈ 0.211 to 0.422 µM) in the assay with M. xenopi WT; not above 0.06 µg/mL in the assay with M. massiliense CRM 0019. In addition, the MBC with mycobacteria came out at 0.015 µg/mL (≈ 0.0527 µM). The “MIC P. aeruginosa PAO-1” value against P. aeruginosa PAO-1 is “inactive”.
`Cc1cc(C)c2cc(C(=O)NC3CCCC3)[nH]c2c1` [Compound 28, N-cyclopentyl-4,6-dimethyl-1H-indole-2-carboxamide]: the MIC with M. abscessus DCI #21 was 4 µg/mL (≈ 15.6 µM); in the assay on M. chelonae ATCC 35752 it was 2 µg/mL (≈ 7.8 µM); in the assay on M. avium 104, more than 32 µg/mL; with M. bolletii ATCC 14472, 2 µg/mL (≈ 7.8 µM); with M. abscessus ATCC 19977 it was 4 µg/mL (≈ 15.6 µM); in the assay with M. smegmatis mc^2155, 5 µg/mL (≈ 19.5 µM). The MIC is 8 µg/mL (≈ 31.2 µM) in assay [1]; 2.5 µg/mL (≈ 9.75 µM) in assay [2]; more than 32 µg/mL in the assay on M. intracellulare 1956; 8 to 16 µg/mL (≈ 31.2 to 62.4 µM) in the assay with M. xenopi WT; 8 µg/mL (≈ 31.2 µM) in the assay on M. massiliense CRM 0019.
`CCCCCCCNC(=O)c1cc2c(C)cc(C)cc2[nH]1` [Compound 32, N-heptyl-4,6-dimethyl-1H-indole-2-carboxamide]: the MIC in the assay with M. abscessus DCI #21 was more than 32 µg/mL; in the assay on M. chelonae ATCC 35752 it was more than 32 µg/mL; in the assay with M. avium 104, more than 32 µg/mL; with M. bolletii ATCC 14472, 32 µg/mL (≈ 112 µM); in the assay on M. abscessus ATCC 19977, more than 32 µg/mL; in the assay with M. smegmatis mc^2155, 5 µg/mL (≈ 17.5 µM). Besides, the MIC in [1] is more than 32 µg/mL; in [2], more than 5 µg/mL; with M. intracellulare 1956, more than 32 µg/mL; in the assay with M. xenopi WT, more than 32 µg/mL; in the assay with M. massiliense CRM 0019, more than 32 µg/mL.
As to `CCCCCCCCNC(=O)c1cc2c(C)cc(C)cc2[nH]1` [Compound 33, N-octyl-4,6-dimethyl-1H-indole-2-carboxamide], the MIC in the assay on M. abscessus DCI #21 is more than 32 µg/mL; with M. chelonae ATCC 35752, more than 32 µg/mL; in the assay on M. avium 104, more than 32 µg/mL; with M. bolletii ATCC 14472 it was more than 32 µg/mL; in the assay with M. abscessus ATCC 19977 it was more than 32 µg/mL; with M. smegmatis mc^2155 it was 2.5 to 5 µg/mL (≈ 8.32 to 16.6 µM). Besides, the MIC in assay [1] was more than 32 µg/mL; in [2], more than 20 µg/mL; in the assay on M. intracellulare 1956, more than 32 µg/mL; with M. xenopi WT, more than 32 µg/mL; in the assay on M. massiliense CRM 0019 it was more than 32 µg/mL.
As for `NCC[C@H](O)C(=O)N[C@@H]1C[C@H](N)[C@@H](O[C@H]2O[C@H](CN)[C@@H](O)[C@H](O)[C@H]2O)[C@H](O)[C@H]1O[C@H]1O[C@H](CO)[C@@H](O)[C@H](N)[C@H]1O` [amikacin, reference compound], the “log10 CFU liver counts on day 12” value in the assay on M. abscessus 103 [3] is given as 4.03±0.62 log10 CFU. Besides, the “log10 CFU lung counts on day 12” value in the assay on M. abscessus 103 [3] was determined as 3.52±0.22 log10 CFU. The “log10 CFU spleen counts on day 12” value in the assay on M. abscessus 103 [3] came out at 3.12±0.30 log10 CFU. Further, the MBC in the assay on M. abscessus 103 [4] and with M. abscessus 1513 was more than 64 µg/mL in each case. Moreover, the MIC was 8 µg/mL (≈ 13.7 µM) in the assay on M. abscessus 103 [4] (setting [5]), 4 µg/mL (≈ 6.83 µM) in the assay with M. abscessus 103 [4] (setting [6]), more than 64 µg/mL in the assay on M. abscessus 1513 (setting [7]) and more than 64 µg/mL with M. abscessus 1513 (setting [8]).
Take `CC[C@H]1OC(=O)[C@H](C)[C@@H](O[C@H]2C[C@@](C)(OC)[C@@H](O)[C@H](C)O2)[C@H](C)[C@@H](O[C@@H]2O[C@H](C)C[C@H](N(C)C)[C@H]2O)[C@](C)(OC)C[C@@H](C)C(=O)[C@H](C)[C@@H](O)[C@]1(C)O` [clarithromycin, reference compound]: the MBC with M. abscessus 103 [4] and in the assay with M. abscessus 1513 was more than 64 µg/mL throughout. The MIC is 16 µg/mL (≈ 21.4 µM) with M. abscessus 103 [4] (setting [5]), 4 µg/mL (≈ 5.35 µM) in the assay with M. abscessus 103 [4] (setting [6]), more than 64 µg/mL with M. abscessus 1513 (setting [7]) and more than 64 µg/mL in the assay with M. abscessus 1513 (setting [8]).
